The values that follow come from patent US8741896B2, “Pyrazolopyrimidine derivatives” (Merck Patent GmbH, priority 2009, dated 2014).

One assay has as its target PI3Kα (Homo sapiens, UniProt P42336). As to the kind of experiment: PI3 kinase inhibition bioassay (PI3Kα). It counts as biochemical.
The target in a further assay is PI3Kβ (Homo sapiens, UniProt P42338). As to the kind of experiment: PI3 kinase inhibition bioassay (PI3Kβ). It counts as biochemical.
The target of the next assay is PI3Kγ (Homo sapiens, UniProt P48736). As to the kind of experiment: PI3 kinase inhibition bioassay (PI3Kγ). It counts as biochemical.
PI3Kγ, sequence (P48736 whole entry, species assumed): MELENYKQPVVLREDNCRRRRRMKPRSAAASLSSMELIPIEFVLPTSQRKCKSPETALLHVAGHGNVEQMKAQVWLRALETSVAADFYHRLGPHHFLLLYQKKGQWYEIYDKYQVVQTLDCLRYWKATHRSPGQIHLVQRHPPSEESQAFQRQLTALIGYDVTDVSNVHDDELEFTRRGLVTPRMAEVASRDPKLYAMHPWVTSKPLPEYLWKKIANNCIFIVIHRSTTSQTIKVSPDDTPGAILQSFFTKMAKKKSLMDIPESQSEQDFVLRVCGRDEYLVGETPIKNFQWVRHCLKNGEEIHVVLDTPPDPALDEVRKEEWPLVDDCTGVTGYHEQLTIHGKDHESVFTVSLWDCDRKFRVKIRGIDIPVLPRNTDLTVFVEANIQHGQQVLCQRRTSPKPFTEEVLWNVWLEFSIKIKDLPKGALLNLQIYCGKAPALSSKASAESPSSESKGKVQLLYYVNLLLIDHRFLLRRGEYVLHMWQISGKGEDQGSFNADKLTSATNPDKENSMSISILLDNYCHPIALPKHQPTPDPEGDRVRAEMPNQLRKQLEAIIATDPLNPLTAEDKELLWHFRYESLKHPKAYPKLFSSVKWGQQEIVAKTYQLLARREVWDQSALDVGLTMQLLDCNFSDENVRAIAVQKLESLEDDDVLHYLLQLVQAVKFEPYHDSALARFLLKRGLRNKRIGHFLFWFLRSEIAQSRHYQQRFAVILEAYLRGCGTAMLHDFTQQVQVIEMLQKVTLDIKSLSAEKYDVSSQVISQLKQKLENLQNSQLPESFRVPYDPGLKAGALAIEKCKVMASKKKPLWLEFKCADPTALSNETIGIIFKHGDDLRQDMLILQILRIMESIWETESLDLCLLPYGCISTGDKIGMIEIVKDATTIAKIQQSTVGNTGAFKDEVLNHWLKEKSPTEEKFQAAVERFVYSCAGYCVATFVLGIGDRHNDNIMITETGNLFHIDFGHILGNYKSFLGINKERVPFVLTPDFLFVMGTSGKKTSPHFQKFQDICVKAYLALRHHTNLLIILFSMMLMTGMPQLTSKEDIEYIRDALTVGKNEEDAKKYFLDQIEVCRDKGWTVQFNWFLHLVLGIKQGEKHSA
The target of the next assay is PI3Kδ (Homo sapiens, UniProt O00329). As to the kind of experiment: PI3 kinase inhibition bioassay (PI3Kδ). It counts as biochemical.
PI3Kδ, sequence (O00329 whole entry, species assumed): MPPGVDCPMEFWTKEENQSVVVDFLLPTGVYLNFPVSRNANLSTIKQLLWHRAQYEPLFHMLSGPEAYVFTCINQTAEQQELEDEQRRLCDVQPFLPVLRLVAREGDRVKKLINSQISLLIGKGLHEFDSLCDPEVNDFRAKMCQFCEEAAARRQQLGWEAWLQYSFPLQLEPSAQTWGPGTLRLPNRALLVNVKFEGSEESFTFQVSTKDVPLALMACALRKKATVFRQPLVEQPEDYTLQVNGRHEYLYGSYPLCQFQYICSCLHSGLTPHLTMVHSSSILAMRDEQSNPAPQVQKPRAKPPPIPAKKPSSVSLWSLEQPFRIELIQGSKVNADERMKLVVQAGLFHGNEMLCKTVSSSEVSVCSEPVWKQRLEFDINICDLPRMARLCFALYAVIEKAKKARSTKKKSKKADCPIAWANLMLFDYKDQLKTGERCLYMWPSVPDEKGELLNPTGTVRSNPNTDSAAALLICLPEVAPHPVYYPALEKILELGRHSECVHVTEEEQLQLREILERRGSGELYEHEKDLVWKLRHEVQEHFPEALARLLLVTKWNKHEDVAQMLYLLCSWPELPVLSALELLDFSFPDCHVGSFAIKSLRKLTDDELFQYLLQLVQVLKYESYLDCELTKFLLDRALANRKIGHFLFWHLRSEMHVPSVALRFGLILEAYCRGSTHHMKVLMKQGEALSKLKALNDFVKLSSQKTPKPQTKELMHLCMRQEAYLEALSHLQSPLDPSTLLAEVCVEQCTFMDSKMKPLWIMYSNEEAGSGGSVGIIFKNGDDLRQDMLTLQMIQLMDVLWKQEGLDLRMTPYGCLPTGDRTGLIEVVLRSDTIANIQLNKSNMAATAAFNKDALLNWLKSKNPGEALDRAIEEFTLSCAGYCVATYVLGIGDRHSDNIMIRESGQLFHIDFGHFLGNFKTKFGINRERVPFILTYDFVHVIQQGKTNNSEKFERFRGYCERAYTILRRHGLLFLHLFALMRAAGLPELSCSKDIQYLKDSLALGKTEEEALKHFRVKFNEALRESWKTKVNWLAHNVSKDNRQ
PI3Kδ, sequence (P27986 whole entry partner, species assumed): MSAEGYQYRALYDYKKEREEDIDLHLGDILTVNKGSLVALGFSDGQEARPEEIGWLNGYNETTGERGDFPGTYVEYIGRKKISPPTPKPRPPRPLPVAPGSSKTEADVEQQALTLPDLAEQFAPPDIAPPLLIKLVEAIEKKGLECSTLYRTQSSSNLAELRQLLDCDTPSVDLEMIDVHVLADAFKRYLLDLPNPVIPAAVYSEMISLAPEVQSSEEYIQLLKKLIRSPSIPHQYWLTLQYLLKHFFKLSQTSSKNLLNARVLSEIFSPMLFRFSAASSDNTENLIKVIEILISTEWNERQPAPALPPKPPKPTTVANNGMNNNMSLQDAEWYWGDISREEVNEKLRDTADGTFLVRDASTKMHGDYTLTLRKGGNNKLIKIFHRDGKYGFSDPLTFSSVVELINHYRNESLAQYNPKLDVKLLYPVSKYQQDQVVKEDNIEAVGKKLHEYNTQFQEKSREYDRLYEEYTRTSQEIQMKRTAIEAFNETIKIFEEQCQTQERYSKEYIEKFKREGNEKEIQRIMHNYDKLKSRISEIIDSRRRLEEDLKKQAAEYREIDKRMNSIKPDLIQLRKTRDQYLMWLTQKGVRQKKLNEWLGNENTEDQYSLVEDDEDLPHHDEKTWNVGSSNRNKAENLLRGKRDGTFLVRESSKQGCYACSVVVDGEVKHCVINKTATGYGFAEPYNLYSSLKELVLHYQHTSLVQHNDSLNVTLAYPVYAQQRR
A further assay has as its target CK2 protein kinase (Homo sapiens, UniProt P68400). Particulars: cited from earlier work.

pIC50: −log10 of the molar value. Bounds are passed on as bounds.

PI3Kβ, sequence (P42338 whole entry, species assumed): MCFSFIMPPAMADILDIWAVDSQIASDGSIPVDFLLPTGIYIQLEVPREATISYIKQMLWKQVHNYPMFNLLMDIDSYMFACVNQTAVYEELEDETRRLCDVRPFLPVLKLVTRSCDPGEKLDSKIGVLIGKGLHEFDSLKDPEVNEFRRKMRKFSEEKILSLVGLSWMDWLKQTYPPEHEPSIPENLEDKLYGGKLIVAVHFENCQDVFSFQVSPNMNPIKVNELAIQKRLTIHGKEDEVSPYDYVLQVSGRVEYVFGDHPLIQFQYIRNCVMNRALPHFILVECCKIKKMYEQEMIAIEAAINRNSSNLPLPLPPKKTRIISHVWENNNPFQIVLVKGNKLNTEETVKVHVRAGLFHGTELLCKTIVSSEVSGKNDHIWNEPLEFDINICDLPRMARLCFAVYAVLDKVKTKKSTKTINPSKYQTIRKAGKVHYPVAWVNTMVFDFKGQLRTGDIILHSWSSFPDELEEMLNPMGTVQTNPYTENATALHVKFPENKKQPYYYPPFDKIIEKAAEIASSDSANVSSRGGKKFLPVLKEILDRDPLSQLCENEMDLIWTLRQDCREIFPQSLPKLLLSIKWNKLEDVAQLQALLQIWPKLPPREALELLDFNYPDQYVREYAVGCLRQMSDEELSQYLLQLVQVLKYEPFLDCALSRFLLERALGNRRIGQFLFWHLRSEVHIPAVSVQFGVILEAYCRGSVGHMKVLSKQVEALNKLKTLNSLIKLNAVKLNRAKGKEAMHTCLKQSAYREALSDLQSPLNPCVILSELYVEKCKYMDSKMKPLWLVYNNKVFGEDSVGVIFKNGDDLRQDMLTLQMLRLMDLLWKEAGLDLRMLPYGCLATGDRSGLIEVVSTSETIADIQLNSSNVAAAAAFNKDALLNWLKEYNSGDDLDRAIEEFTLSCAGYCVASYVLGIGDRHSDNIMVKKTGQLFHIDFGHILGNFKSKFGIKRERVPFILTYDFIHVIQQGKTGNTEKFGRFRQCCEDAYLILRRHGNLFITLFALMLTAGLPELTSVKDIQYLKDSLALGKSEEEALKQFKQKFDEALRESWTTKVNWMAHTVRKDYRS
PI3Kβ, sequence (P27986 whole entry partner, species assumed): as the sequence (P27986 whole entry partner, species assumed) above
PI3Kα, sequence (P42336 whole entry, species assumed): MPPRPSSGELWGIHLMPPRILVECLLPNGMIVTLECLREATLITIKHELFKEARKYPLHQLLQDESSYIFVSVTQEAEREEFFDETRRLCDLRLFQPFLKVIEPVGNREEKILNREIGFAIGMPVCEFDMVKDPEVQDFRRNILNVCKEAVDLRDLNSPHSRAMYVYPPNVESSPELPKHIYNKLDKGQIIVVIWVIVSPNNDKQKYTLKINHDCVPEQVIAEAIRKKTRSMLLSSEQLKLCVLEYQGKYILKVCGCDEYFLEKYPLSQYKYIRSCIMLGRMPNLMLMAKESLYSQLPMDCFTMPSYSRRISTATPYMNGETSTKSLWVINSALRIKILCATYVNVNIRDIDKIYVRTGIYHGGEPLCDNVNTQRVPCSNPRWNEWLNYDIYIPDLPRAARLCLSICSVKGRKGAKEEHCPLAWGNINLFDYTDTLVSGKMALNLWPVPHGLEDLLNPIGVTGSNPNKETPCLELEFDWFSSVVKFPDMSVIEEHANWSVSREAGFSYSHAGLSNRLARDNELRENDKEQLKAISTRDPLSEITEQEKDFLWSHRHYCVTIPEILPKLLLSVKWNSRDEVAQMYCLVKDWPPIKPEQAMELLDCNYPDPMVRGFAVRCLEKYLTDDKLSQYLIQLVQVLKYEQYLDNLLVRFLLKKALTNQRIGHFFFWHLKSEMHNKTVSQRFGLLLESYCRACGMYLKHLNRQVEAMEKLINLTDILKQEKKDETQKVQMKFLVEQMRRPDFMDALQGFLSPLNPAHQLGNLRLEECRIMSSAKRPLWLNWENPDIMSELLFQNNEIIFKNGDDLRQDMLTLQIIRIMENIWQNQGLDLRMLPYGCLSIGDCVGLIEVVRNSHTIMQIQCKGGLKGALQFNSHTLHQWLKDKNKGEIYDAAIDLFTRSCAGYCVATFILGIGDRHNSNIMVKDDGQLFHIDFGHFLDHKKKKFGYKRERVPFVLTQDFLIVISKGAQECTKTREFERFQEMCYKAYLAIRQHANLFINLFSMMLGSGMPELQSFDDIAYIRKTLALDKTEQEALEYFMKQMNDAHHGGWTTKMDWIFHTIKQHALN
PI3Kα, sequence (P27986 whole entry partner, species assumed): as the sequence (P27986 whole entry partner, species assumed) above

What is called pIC50 is the negative decadic logarithm of the IC50, by convention in mol/L. Consider `Nc1ncc(-c2nc(N3CCOCC3)nc3c2cnn3CC(=O)N2CCCC2)cn1` [Compound A228], for which the pIC50 at PI3Kα, against PI3Kβ, at PI3Kγ and on PI3Kδ was 5.00 to 7.00 each time.
`Cn1ncc2c(-c3cnc(N)nc3)nc(N3CCOCC3)nc21` [Compound A225, 5-(1-methyl-6-morpholin-4-yl-1H-pyrazolo[3,4-d]pyrimidin-4-yl)pyrimidin-2-ylamine]: the negative logarithm of the IC50 (pIC50) on PI3Kα, on PI3Kβ, on PI3Kγ and at PI3Kδ was 5.00 to 7.00 in each case.
Regarding `CN1CCN(C(=O)Cn2ncc3c(-c4cnc(N)nc4)nc(N4CCOCC4)nc32)CC1` [Compound A231], the pIC50 on PI3Kα, against PI3Kβ, against PI3Kγ and at PI3Kδ was 5.00 to 7.00 in each case.
As for `Cn1ncc2c(-c3cccc(CO)c3)nc(N3CCOCC3)nc21` [Compound A33, [3-(1-methyl-6-morpholin-4-yl-1H-pyrazolo[3,4-d]pyrimidin-4-yl)phenyl]methanol], the pIC50 at PI3Kα, at PI3Kβ, against PI3Kγ and against PI3Kδ was 5.00 to 7.00 in each case.
For `O=c1cc(N2CCOCC2)oc2c(-c3ccccc3)cccc12` [LY294002], the pIC50 at CK2 protein kinase was 5.00 to 5.30.
As for `Nc1ncc(-c2nc(N3CCOCC3)nc3c2cnn3CC(=O)N2CCOCC2)cn1` [Compound A229], the pIC50 on PI3Kα, against PI3Kβ, at PI3Kγ and at PI3Kδ was 5.00 to 7.00 in each case.
`Nc1ccc(-c2nc(N3CCOCC3)nc3c2cnn3CC(=O)N2CCCC2)cn1` [Compound A196]: the pIC50 against PI3Kα is 5.00 to 7.00; on PI3Kβ, less than 5.00; on PI3Kγ it was less than 5.00; on PI3Kδ, 5.00 to 7.00.
Turning to `Cn1ncc2c(-c3cccc(O)c3)nc(N3CCOCC3)nc21` [Compound A1, 3-(1-methyl-6-morpholin-4-yl-1H-pyrazolo[3,4-d]pyrimidin-4-yl)phenol], the pIC50 on PI3Kα, against PI3Kβ, against PI3Kγ and against PI3Kδ was 5.00 to 7.00 in each case.
On to `Cn1ncc2c(-c3cccc4[nH]ccc34)nc(N3CCOCC3)nc21` [Compound A97, 4-(1H-indol-4-yl)-1-methyl-6-morpholin-4-yl-1H-pyrazolo[3,4-d]pyrimidine], for which the pIC50 on PI3Kα was 5.00 to 7.00; against PI3Kβ it was 5.00 to 7.00; on PI3Kγ, less than 5.00; against PI3Kδ, 5.00 to 7.00.
Regarding `Cn1ncc2c(-c3ccc(N)nc3)nc(N3CCOCC3)nc21` [Compound A193, 5-(1-methyl-6-morpholin-4-yl-1H-pyrazolo[3,4-d]pyrimidin-4-yl)pyridin-2-ylamine], the pIC50 against PI3Kα, against PI3Kβ, against PI3Kγ and at PI3Kδ was 5.00 to 7.00 each time.
Consider `Cn1ncc2c(-c3ccc4cc[nH]c4c3)nc(N3CCOCC3)nc21` [Compound A65, 4-(1H-indol-6-yl)-1-methyl-6-morpholin-4-yl-1H-pyrazolo-[3,4-d]pyrimidine], for which the pIC50 against PI3Kα was less than 5.00; against PI3Kβ it was less than 5.00; on PI3Kγ, 5.00 to 7.00; at PI3Kδ, less than 5.00.
`Cn1ncc2c(-c3cccc4[nH]ncc34)nc(N3CCOCC3)nc21` [Compound A161, 4-(1H-indazol-4-yl)-1-methyl-6-morpholin-4-yl-1H-pyrazolo-[3,4-d]pyrimidine]: the pIC50 on PI3Kα, against PI3Kβ, at PI3Kγ and on PI3Kδ was 5.00 to 7.00 throughout.
Consider `Cn1ncc2c(-c3ccc4[nH]cnc4c3)nc(N3CCOCC3)nc21` [Compound A129, 4-(1H-benzimidazol-5-yl)-1-methyl-6-morpholin-4-yl-1H-pyrazolo[3,4-d]pyrimidine], for which the pIC50 on PI3Kα, against PI3Kβ, against PI3Kγ and against PI3Kδ was 5.00 to 7.00 in each case.
